Columns and labels:
[1] = tested on: OVCAR-5; assay: Growth inhibition of human OVCAR5 cells after 48 hrs by sulforhodamine B assay; format: functional; details: OVCAR-5, 48 h
[2] = tested on: SNB-19; assay: Growth inhibition of human SNB19 cells assessed as cell growth at 10 uM after 48 hrs by sulforhodamine B assay; format: functional; details: SNB-19, 48 h, read-out: Activity
[3] = tested on: MDA-MB-468; assay: Growth inhibition of human MDA-MB-468 cells after 48 hrs by sulforhodamine B assay; format: functional, cell-based; details: MDA-MB-468, 48 h; for CC50: read-out: LC50 (the source's name)
[4] = tested on: Malme-3M; assay: Growth inhibition of human MALME-3M cells after 48 hrs by sulforhodamine B assay; format: functional
[5] = tested on: NCI-H460; assay: Growth inhibition of human NCI-H460 cells assessed as cell growth at 10 uM after 48 hrs by sulforhodamine B assay; format: functional; details: NCI-H460, 48 h, read-out: Activity
[6] = Growth inhibition of human Hs 578T cells after 48 hrs by sulforhodamine B assay; format: functional; details: for CC50: read-out: LC50 (the source's name)
[7] = tested on: NCI-H322M; assay: Growth inhibition of human NCI-H322M cells after 48 hrs by sulforhodamine B assay; format: functional; details: for CC50: read-out: LC50 (the source's name)
[8] = tested on: MOLT-4; assay: Growth inhibition of human MOLT4 cells after 48 hrs by sulforhodamine B assay; format: functional; details: MOLT-4, 48 h; for CC50: read-out: LC50 (the source's name)
[9] = tested on: BT-549; assay: Growth inhibition of human BT549 cells assessed as cell growth at 10 uM after 48 hrs by sulforhodamine B assay; format: functional; details: BT-549, 48 h, read-out: Activity
[10] = tested on: PC-3; assay: Growth inhibition of human PC3 cells after 48 hrs by sulforhodamine B assay; format: functional, cell-based; details: PC-3, 48 h; for CC50: read-out: LC50 (the source's name)
[11] = tested on: HT-29; assay: Growth inhibition of human HT-29 cells after 48 hrs by sulforhodamine B assay; format: functional; details: HT-29, 48 h; for CC50: read-out: LC50 (the source's name)
[12] = tested on: IGROV-1; assay: Growth inhibition of human IGROV1 cells after 48 hrs by sulforhodamine B assay; format: functional; details: IGROV-1, 48 h
[13] = tested on: UACC-62; assay: Growth inhibition of human UACC62 cells assessed as cell growth at 10 uM after 48 hrs by sulforhodamine B assay; format: functional; details: UACC-62, 48 h, read-out: Activity
[14] = tested on: A549; assay: Growth inhibition of human A549/ATCC cells after 48 hrs by sulforhodamine B assay; format: functional; details: A549, 48 h
[15] = tested on: NCI-H322M; assay: Growth inhibition of human NCI-H322M cells assessed as cell growth at 10 uM after 48 hrs by sulforhodamine B assay; format: functional; details: read-out: Activity
[16] = tested on: RXF 393; assay: Growth inhibition of human RXF393 cells assessed as cell growth at 10 uM after 48 hrs by sulforhodamine B assay; format: functional; details: RXF 393, 48 h, read-out: Activity
[17] = tested on: SF-539; assay: Growth inhibition of human SF539 cells assessed as cell growth at 10 uM after 48 hrs by sulforhodamine B assay; format: functional; details: SF-539, 48 h, read-out: Activity
[18] = Growth inhibition of human Hs 578T cells assessed as cell growth at 10 uM after 48 hrs by sulforhodamine B assay; format: functional; details: read-out: Activity
[19] = tested on: HL-60(TB); assay: Growth inhibition of human HL-60(TB) cells assessed as cell growth at 10 uM after 48 hrs by sulforhodamine B assay; format: functional; details: HL-60, 48 h, read-out: Activity
[20] = tested on: SNB-19; assay: Growth inhibition of human SNB19 cells after 48 hrs by sulforhodamine B assay; format: functional; details: SNB-19, 48 h
[21] = tested on: SN12C; assay: Growth inhibition of human SN12C cells assessed as cell growth at 10 uM after 48 hrs by sulforhodamine B assay; format: functional; details: read-out: Activity
[22] = tested on: RXF 393; assay: Growth inhibition of human RXF393 cells after 48 hrs by sulforhodamine B assay; format: functional; details: RXF 393, 48 h
[23] = tested on: LOX IMVI; assay: Growth inhibition of human LOXIMVI cells assessed as cell growth at 10 uM after 48 hrs by sulforhodamine B assay; format: functional; details: read-out: Activity
[24] = tested on: MDA-MB-231; assay: Growth inhibition of human MDA-MB-231 cells after 48 hrs by sulforhodamine B assay; format: functional; details: MDA-MB-231, 48 h
[25] = tested on: SF-268; assay: Growth inhibition of human SF268 cells assessed as cell growth at 10 uM after 48 hrs by sulforhodamine B assay; format: functional; details: SF-268, 48 h, read-out: Activity
[26] = tested on: 786-0; assay: Growth inhibition of human 786-0 cells assessed as cell growth at 10 uM after 48 hrs by sulforhodamine B assay; format: functional; details: 786-0, 48 h, read-out: Activity
[27] = tested on: SK-MEL-5; assay: Growth inhibition of human SK-MEL-5 cells assessed as cell growth at 10 uM after 48 hrs by sulforhodamine B assay; format: functional; details: SK-MEL-5, 48 h, read-out: Activity
[28] = tested on: A549; assay: Growth inhibition of human A549/ATCC cells assessed as cell growth at 10 uM after 48 hrs by sulforhodamine B assay; format: functional; details: A549, 48 h, read-out: Activity
[29] = tested on: MDA-MB-435; assay: Growth inhibition of human MDA-MB-435 cells assessed as cell growth at 10 uM after 48 hrs by sulforhodamine B assay; format: functional; details: MDA-MB-435, 48 h, read-out: Activity
[30] = tested on: TK-10; assay: Growth inhibition of human TK10 cells assessed as cell growth at 10 uM after 48 hrs by sulforhodamine B assay; format: functional; details: TK-10, 48 h, read-out: Activity
[31] = tested on: NCI-H23; assay: Growth inhibition of human NCI-H23 cells after 48 hrs by sulforhodamine B assay; format: functional; details: NCI-H23, 48 h
[32] = tested on: HCT-116; assay: Growth inhibition of human HCT116 cells after 48 hrs by sulforhodamine B assay; format: functional; details: HCT-116, 48 h; for CC50: read-out: LC50 (the source's name)
[33] = tested on: SF-295; assay: Growth inhibition of human SF295 cells after 48 hrs by sulforhodamine B assay; format: functional, cell-based; details: SF-295, 48 h; for CC50: read-out: LC50 (the source's name)
[34] = tested on: U-251; assay: Growth inhibition of human U251 cells after 48 hrs by sulforhodamine B assay; format: functional; details: U-251, 48 h

## COc1cc(-c2nn(-c3cccc(NC(=O)c4ccccc4)c3)cc2-c2ccncc2)ccc1Cl
[1]
  GI50: 15 µM
  LC50 (concentration killing 50% of cells): > 100 µM
  TGI: > 100 µM
[2]
  growth at 10 µM: 50%
[3]
  GI50: 349 nM
  IC50: 350 nM
  TGI: 3420 nM
  CC50: > 100 µM
[4]
  GI50: 537 nM
  LC50 (concentration killing 50% of starting cells): > 100 µM
  TGI: > 100000 nM
[5]
  growth at 10 µM: 2.74%
[6]
  GI50: 1110 nM
  TGI: > 100 µM
  CC50: > 100 µM
[7]
  GI50: 4.59 µM
  TGI: > 100 µM
  CC50: > 100 µM
[8]
  GI50: 701 nM
  TGI: > 100 µM
  CC50: > 100 µM
[9]
  growth at 10 µM: 1.29%
[10]
  GI50: 426 nM
  IC50: 430 nM
  TGI: > 100000 nM
  CC50: > 100 µM
[11]
  GI50: 392 nM
  TGI: > 100 µM
  CC50: > 100 µM
[12]
  GI50: 534 nM
  LC50 (concentration killing 50% of cells): > 100 µM
  TGI: > 100 µM
[13]
  growth at 10 µM: 32.5%
[14]
  GI50: 585 nM
  LC50 (concentration killing 50% of starting cells): > 100 µM
  TGI: > 100 µM
[15]
  growth at 10 µM: 52.3%
[16]
  growth at 10 µM: -19.2%
[17]
  growth at 10 µM: -15%
[18]
  growth at 10 µM: -1.34%
[19]
  growth at 10 µM: -18.8%
[20]
  GI50: 860 nM
  LC50 (concentration killing 50% of cells): > 100 µM
  TGI: > 100 µM
[21]
  growth at 10 µM: 28.8%
[22]
  GI50: 646 nM
  LC50 (concentration killing 50% of cells): > 100 µM
  TGI: 6.34 µM
[23]
  growth at 10 µM: 17.4%
[24]
  GI50: 1170 nM
  LC50: > 100 µM
  TGI: 13.7 µM
[25]
  growth at 10 µM: 18.7%
[26]
  growth at 10 µM: 21.3%
[27]
  growth at 10 µM: -49.4%
[28]
  growth at 10 µM: 4.81%
[29]
  growth at 10 µM: -57.9%
[30]
  growth at 10 µM: 31%
[31]
  GI50: 2020 nM
  LC50: > 100 µM
  TGI: > 100 µM
[32]
  GI50: 500 nM
  TGI: > 100 µM
  CC50: > 100 µM
[33]
  GI50: 337 nM
  IC50: 340 nM
  TGI: 2260 nM
  CC50: > 100 µM
[34]
  GI50: 661 nM
  LC50 (concentration killing 50% of cells): > 100 µM
  TGI: 30.8 µM

## COc1cc(-c2nn(-c3cccc(NC(=O)Nc4ccc(Cl)c(Cl)c4)c3)cc2-c2ccncc2)ccc1Cl
[1]
  GI50: 2.13 µM
  LC50 (concentration killing 50% of cells): > 50 µM
  TGI: > 50 µM
[2]
  growth at 10 µM: 27.2%
[3]
  GI50: 567 nM
  IC50: 570 nM
  TGI: 2270 nM
  CC50: > 50 µM
[4]
  GI50: 926 nM
  LC50 (concentration killing 50% of starting cells): > 50 µM
  TGI: 2420 nM
[5]
  growth at 10 µM: 2.32%
[6]
  GI50: 1430 nM
  TGI: > 50 µM
  CC50: > 50 µM
[7]
  GI50: 1.69 µM
  TGI: > 50 µM
  CC50: > 50 µM
[8]
  GI50: 1100 nM
  TGI: 4.48 µM
  CC50: > 50 µM
[9]
  growth at 10 µM: 6.23%
[10]
  GI50: 554 nM
  IC50: 550 nM
  TGI: 2830 nM
  CC50: > 50 µM
[11]
  GI50: 1240 nM
  TGI: 6.46 µM
  CC50: > 50 µM
[12]
  GI50: 1180 nM
  LC50 (concentration killing 50% of cells): > 50 µM
  TGI: 3.48 µM
[13]
  growth at 10 µM: -65.1%
[14]
  GI50: 745 nM
  LC50 (concentration killing 50% of starting cells): > 50 µM
  TGI: > 50 µM
[15]
  growth at 10 µM: 38.8%
[16]
  growth at 10 µM: -22.8%
[17]
  growth at 10 µM: 12.3%
[18]
  growth at 10 µM: -6.95%
[19]
  growth at 10 µM: -18.1%
[20]
  GI50: 1720 nM
  LC50 (concentration killing 50% of cells): > 50 µM
  TGI: > 50 µM
[21]
  growth at 10 µM: 10.7%
[22]
  GI50: 859 nM
  LC50 (concentration killing 50% of cells): > 50 µM
  TGI: 2.44 µM
[23]
  growth at 10 µM: 1.38%
[24]
  GI50: 698 nM
  LC50: 12.9 µM
  TGI: 1.92 µM
[25]
  growth at 10 µM: 17.9%
[26]
  growth at 10 µM: 15.3%
[27]
  growth at 10 µM: -80%
[28]
  growth at 10 µM: -5.88%
[29]
  growth at 10 µM: -45.8%
[30]
  growth at 10 µM: 10.9%
[31]
  GI50: 1410 nM
  LC50: > 50 µM
  TGI: 5.19 µM
[32]
  GI50: 1210 nM
  TGI: > 50 µM
  CC50: > 50 µM
[33]
  GI50: 691 nM
  IC50: 690 nM
  TGI: 2530 nM
  CC50: > 50 µM
[34]
  GI50: 820 nM
  LC50 (concentration killing 50% of cells): > 50 µM
  TGI: 2.47 µM

— ChEMBL document CHEMBL2440076, “New triarylpyrazoles as broad-spectrum anticancer agents: design, synthesis, and biological evaluation” (Eur J Med Chem, 2013)
